Laboratory results reported in PubChem BioAssay (NCI).
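Test compounds were applied to cells in 96-well plates for 48 hours at 5 doses. The concentration for full growth arrest is given as TGI.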

What was measured:
Assay in all cases: DTP human tumour cell line panel, 48 h
OVCAR-8 ovarian = tested on: OVCAR-8 ovarian
HOP-62 NSCLC = tested on: HOP-62 NSCLC
ACHN renal = tested on: ACHN renal
MDA-N = tested on: MDA-N
COLO 205 colon = tested on: COLO 205 colon
RPMI-8226 leukemia = tested on: RPMI-8226 leukemia
MDA-MB-435 = tested on: MDA-MB-435
U251 CNS = tested on: U251 CNS
UACC-62 melanoma = tested on: UACC-62 melanoma
MOLT-4 leukemia = tested on: MOLT-4 leukemia
HL-60(TB) leukemia = tested on: HL-60(TB) leukemia
SNB-75 CNS = tested on: SNB-75 CNS
NCI-H226 lung = tested on: NCI-H226 lung
NCI-H23 lung = tested on: NCI-H23 lung
LOX IMVI melanoma = tested on: LOX IMVI melanoma
A498 renal = tested on: A498 renal
M14 melanoma = tested on: M14 melanoma

| SMILES | TGI (OVCAR-8 ovarian) | TGI (HOP-62 NSCLC) | TGI (ACHN renal) | TGI (MDA-N) | TGI (COLO 205 colon) | TGI (RPMI-8226 leukemia) | TGI (MDA-MB-435) | TGI (U251 CNS) | TGI (UACC-62 melanoma) | TGI (MOLT-4 leukemia) | TGI (HL-60(TB) leukemia) | TGI (SNB-75 CNS) | TGI (NCI-H226 lung) | TGI (NCI-H23 lung) | TGI (LOX IMVI melanoma) | TGI (A498 renal) | TGI (M14 melanoma) |
| --- | --- | --- | --- | --- | --- | --- | --- | --- | --- | --- | --- | --- | --- | --- | --- | --- | --- |
| C=C1C(=O)OC2C1CCC(=C)C1CC(O)C(=C)C12 (centres undefined) | 60.4 µM | 49.8 µM | 7.99 µM | 26.7 µM | 6.89 µM | 23 µM | 58.8 µM | 50.3 µM | 26.6 µM | 25 µM | 5.79 µM | 37.3 µM | > 63.1 µM | 34 µM | 20.9 µM | 38 µM | 41 µM |
| Nc1nc(Cl)cc(NCC2(CO)CCCCC2)n1 | > 100 µM | > 100 µM | > 100 µM | > 100 µM | > 100 µM | > 100 µM | > 100 µM | > 100 µM | > 100 µM | > 100 µM | > 100 µM | > 100 µM | > 100 µM | > 100 µM | > 100 µM | > 100 µM | > 100 µM |
| CCOC(=O)NN(C(=O)OCC)c1ccc(N=Nc2ccc(OC)cc2)n1C | > 100 µM | 86.8 µM | 58.2 µM | 40.7 µM | 41.3 µM | > 100 µM | 56 µM | > 100 µM | > 100 µM | > 100 µM | 50.5 µM | 46 µM | 97.2 µM | > 100 µM | 41.5 µM | 56.1 µM | 50 µM |
| c1ccc(-c2cnc(SC(c3ccccc3)c3ccccc3)[nH]2)cc1 | > 100 µM | > 100 µM | > 100 µM | 69.6 µM | 44.1 µM | 48.5 µM | > 100 µM | > 100 µM | 42.1 µM | > 100 µM | 40.7 µM | > 100 µM | 67.3 µM | 52.5 µM | 59 µM | > 100 µM | > 100 µM |
| CCO/C(O)=C(/C(=N)N1CCOCC1)C(=O)Nc1cccc(C(F)(F)F)c1 | > 100 µM | > 100 µM | > 100 µM | > 100 µM | > 100 µM | > 100 µM | > 100 µM | > 100 µM | > 100 µM | > 100 µM | > 100 µM | > 100 µM | > 100 µM | > 100 µM | > 100 µM | > 100 µM | > 100 µM |
| COC(=O)[C@H](CNC(=O)/C=C/c1ccc(OC(C)=O)c(OC(C)=O)c1)NC(=O)/C=C/c1ccc(OC(C)=O)c(OC(C)=O)c1 | > 100 µM | > 100 µM | > 100 µM | > 100 µM | > 100 µM | > 100 µM | > 100 µM | > 100 µM | > 100 µM | > 100 µM | > 100 µM | > 100 µM | > 100 µM | > 100 µM | > 100 µM | > 100 µM | > 100 µM |
| COC(=O)C1OC(O[C@H]2CC[C@]3(C)[C@H]4CC=C5[C@@H]6CC(C)(C)CC[C@]6(C(=O)OC)CC[C@@]5(C)[C@]4(C)CC[C@H]3C2(C)C)C(O)C(O)C1O (some centres undefined) | 31.2 µM | 31.9 µM | 24.2 µM | 30.9 µM | 29.9 µM | 51.7 µM | 30 µM | 25.1 µM | 31 µM | > 100 µM | 36.7 µM | 31.1 µM | 37 µM | 32.4 µM | 20 µM | 34.3 µM | 30 µM |
